{
  "source": "patent US20120270864A1",
  "about": "“2-QUINOLINONE AND 2-QUINOXALINONE-DERIVATIVES AND THEIR USE AS ANTIBACTERIAL AGENTS” (ASTRAZENECA AB, priority 2006, published 2012)",
  "data": [
    {"system": "Staphylococcus aureus (Sau) 516 cells", "test": "Bacterial Susceptibility Testing Methods 2 (microbroth dilution, growth inhibition)", "assay_type": "cell-based", "details": "Staphylococcus aureus, Tested Concentration 8 μg/mL; Staphylococcus aureus 516 cell growth suppressed compared to untreated sample", "from_the_text": "(§1) Compounds may be tested for antimicrobial activity by susceptibility testing using microbroth dilution methods recommended by CSLI. Compounds may be dissolved in dimethylsulfoxide and tested in 10 doubling dilutions in the susceptibility assays such that the final dimethylsulfoxide concentration in the assay is 2% (v/v). The Staphylococcus aureus (Sau) 516 cells used in the assay may be grown overnight on appropriate agar media and then suspended in the NCCLS-recommended liquid susceptibility-testing media. […] Plates may be incubated under appropriate conditions of atmosphere and temperature and for times according to NCCLS standard methods prior to being read. As used in Table 1 below, the term “inhibition” refers to the percentage of Staphylococcus aureus 516 cell growth that is suppressed (compared to an untreated sample) by the compound of the indicated example number. When tested in the above in-vitro assay, the compounds and salts of the example numbers listed below were tested at the indicated concentrations, providing the indicated inhibitions. In most instances, the highest concentrations at which the compounds were tested was 8 μg/mL. In some instances, however, compounds were tested at concentrations higher than 8 μg/mL, typically when the concentration was first measured in μM and was subsequently converted to μg/mL. In those cases in which compounds were tested at more than one concentration higher than 8 μg/mL, the concentration closest to 8 μg/mL is provided below.", "units": {"inhibition at 8 µg/mL": "%"}, "values": [
      {"smiles": "COc1ccc2ncc(=O)n(CCN3CCC(NCc4cc5c(cn4)OCCO5)C(O)C3)c2c1", "note": "(single isomer, unassigned) [Example 29, 1-(2-{4-[(2,3-Dihydro[1,4]dioxino[2,3-c]pyridin-7-ylmethyl)amino]-3-hydroxypiperidin-1-yl}ethyl)-7-methoxyquinoxalin-2(1H)-one]", "inhibition at 8 µg/mL": 84},
      {"smiles": "COc1ccc2ncc(=O)n(CCN3CCC(NCc4ccc5c(n4)NC(=O)CO5)C(O)C3)c2c1", "note": "(single isomer, unassigned) [Example 30, 6-[({3-Hydroxy-1-[2-(7-methoxy-2-oxoquinoxalin-1(2H)-yl)ethyl]piperidin-4-yl}amino)methyl]-2H-pyrido[3,2-b][1,4]oxazin-3(4H)-one]", "inhibition at 8 µg/mL": 98},
      {"smiles": "N#Cc1ccc2ccc(=O)n(CCN3CC[C@H](NCc4ccc5c(n4)NC(=O)CS5)[C@H](O)C3)c2c1", "note": "[Example 3, 1-[2-((3R,4S)-3-Hydroxy-4-{[(3-oxo-3,4-dihydro-2H-pyrido[3,2-b][1,4]thiazin-6-yl)methyl]amino}piperidin-1-yl)ethyl]-2-oxo-1,2-dihydroquinoline-7-carbonitrile]", "inhibition at 8 µg/mL": 99},
      {"smiles": "N#Cc1ccc2ccc(=O)n(CCN3CC[C@@H](NCc4cc5c(cn4)OCCO5)[C@@H](O)C3)c2c1", "note": "[Example 4, 1-(2-{(3S,4R)-4-[(2,3-Dihydro[1,4]dioxino[2,3-c]pyridin-7-ylmethyl)amino]-3-hydroxypiperidin-1-yl}ethyl)-2-oxo-1,2-dihydroquinoline-7-carbonitrile]", "inhibition at 8 µg/mL": 100},
      {"smiles": "N#Cc1ccc2ccc(=O)n(CCN3CC[C@@H](NCc4ccc5c(n4)NC(=O)CO5)[C@@H](O)C3)c2c1", "note": "[Example 5, 1-[2-((3S,4R)-3-Hydroxy-4-{[(3-oxo-3,4-dihydro-2H-pyrido[3,2-b][1,4]oxazin-6-yl)methyl]amino}piperidin-1-yl)ethyl]-2-oxo-1,2-dihydro quino line-7-carbonitrile]", "inhibition at 8 µg/mL": 100},
      {"smiles": "N#Cc1ccc2ccc(=O)n(CCN3CC[C@@H](NCc4ccc5c(n4)NC(=O)CS5)[C@@H](O)C3)c2c1", "note": "[Example 6, 1-[2-((3S,4R)-3-Hydroxy-4-{[(3-oxo-3,4-dihydro-2H-pyrido[3,2-b][1,4]thiazin-6-yl)methyl]amino}piperidin-1-yl)ethyl]-2-oxo-1,2-dihydro quino line-7-carbonitrile]", "inhibition at 8 µg/mL": 99},
      {"smiles": "COc1ccc2ncc(=O)n(CCN3CC[C@H](NCc4cc5c(cn4)OCCO5)[C@H](O)C3)c2c1", "note": "[Example 7, 1-(2-{(3R,4S)-4-[(2,3-Dihydro[1,4]dioxino[2,3-c]pyridin-7-ylmethyl)amino]-3-hydroxypiperidin-1-yl}ethyl)-7-methoxyquinoxalin-2(1H)-one]", "inhibition at 8 µg/mL": 100},
      {"smiles": "COc1ccc2ncc(=O)n(CCN3CC[C@H](NCc4ccc5c(n4)NC(=O)CO5)[C@H](O)C3)c2c1", "note": "[Example 8, 6-[({(3R,4S)-3-Hydroxy-1-[2-(7-methoxy-2-oxoquinoxalin-1(2H)-yl)ethyl]piperidin-4-yl}amino)methyl]-2H-pyrido[3,2-b][1,4]oxazin-3(4H)-one]", "inhibition at 8 µg/mL": 99},
      {"smiles": "COc1ccc2ncc(=O)n(CCN3CC[C@@H](NCc4cc5c(cn4)OCCO5)[C@@H](O)C3)c2c1", "note": "[Example 10, 1-(2-{(3S,4R)-4-[(2,3-Dihydro[1,4]dioxino[2,3-c]pyridin-7-ylmethyl)amino]-3-hydroxypiperidin-1-yl}ethyl)-7-methoxyquinoxalin-2(1H)-one]", "inhibition at 8 µg/mL": 100},
      {"smiles": "COc1ccc2ncc(=O)n(CCN3CC[C@@H](NCc4ccc5c(n4)NC(=O)CO5)[C@@H](O)C3)c2c1", "note": "[Example 11, 6-[({(3S,4R)-3-Hydroxy-1-[2-(7-methoxy-2-oxoquinoxalin-1(2H)-yl)ethyl]piperidin-4-yl}amino)methyl]-2H-pyrido[3,2-b][1,4]oxazin-3(4H)-one]", "inhibition at 8 µg/mL": 100},
      {"smiles": "N#Cc1ccc2ccc(=O)n(CCN3CC[C@@H](NCc4cc5c(cn4)OCCO5)[C@@H](F)C3)c2c1", "note": "[Example 12, 1-(2-{(3S,4R)-4-[(2,3-Dihydro[1,4]dioxino[2,3-c]pyridin-7-ylmethyl)amino]-3-fluoropiperidin-1-yl}ethyl)-2-oxo-1,2-dihydroquinoline-7-carbonitrile]", "inhibition at 8 µg/mL": 100},
      {"smiles": "N#Cc1ccc2ccc(=O)n(CCN3CC[C@H](NCc4cc5c(cn4)OCCO5)[C@H](F)C3)c2c1", "note": "[Example 13, 1-(2-{(3R,4S)-4-[(2,3-Dihydro[1,4]dioxino[2,3-c]pyridin-7-ylmethyl)amino]-3-fluoropiperidin-1-yl}ethyl)-2-oxo-1,2-dihydro quino line-7-carbonitrile]", "inhibition at 8 µg/mL": 100},
      {"smiles": "COc1ccc2ncc(=O)n(CCN3CC[C@@H](NCc4cc5c(cn4)OCCO5)[C@@H](OC)C3)c2c1", "note": "[Example 14, 1-(2-{(3S,4R)-4-[(2,3-Dihydro[1,4]dioxino[2,3-c]pyridin-7-ylmethyl)amino]-3-methoxypiperidin-1-yl}ethyl)-7-methoxyquinoxalin-2(1H)-one]", "inhibition at 8 µg/mL": 100},
      {"smiles": "COc1ccc2ncc(=O)n(CCN3CC[C@@H](NCc4ccc5c(n4)NC(=O)CO5)[C@@H](OC)C3)c2c1", "note": "[Example 15, 6-[({(3S,4R)-3-Methoxy-1-[2-(7-methoxy-2-oxoquinoxalin-1(2H)-yl)ethyl]piperidin-4-yl}amino)methyl]-2H-pyrido[3,2-b][1,4]oxazin-3 (4H)-one]", "inhibition at 8 µg/mL": 97}
    ]},
    {"system": "Staphylococcus aureus (Sau) 516 cells", "test": "Bacterial Susceptibility Testing Methods 2 (microbroth dilution, growth inhibition)", "assay_type": "cell-based", "details": "Staphylococcus aureus, Tested Concentration 12 μg/mL; Staphylococcus aureus 516 cell growth", "from_the_text": "as §1", "units": {"inhibition at 12 µg/mL": "%"}, "values": [
      {"smiles": "COc1ccc2ncc(=O)n(CCN3CCC(NCc4ccc5c(n4)NC(=O)CO5)C(F)C3)c2c1", "note": "(single isomer, unassigned) [Example 36, 6-[({3-Fluoro-1-[2-(7-methoxy-2-oxoquinoxalin-1(2H)-yl)ethyl]piperidin-4-yl}amino)methyl]-2H-pyrido[3,2-b][1,4]oxazin-3(4H)-one]", "inhibition at 12 µg/mL": 90},
      {"smiles": "N#Cc1ccc2ccc(=O)n(CCN3CCC(NCc4ccc5c(n4)NC(=O)CO5)C(F)C3)c2c1", "note": "(single isomer, unassigned) [Example 38, 1-[2-(3-Fluoro-4-{[(3-oxo-3,4-dihydro-2H-pyrido[3,2-b][1,4]oxazin-6-yl)methyl]amino}piperidin-1-yl)ethyl]-2-oxo-1,2-dihydro quino line-7-carbonitrile]", "inhibition at 12 µg/mL": 100}
    ]},
    {"system": "Staphylococcus aureus (Sau) 516 cells", "test": "Bacterial Susceptibility Testing Methods 2 (microbroth dilution, growth inhibition)", "assay_type": "cell-based", "details": "Staphylococcus aureus, Tested Concentration 13 μg/mL; Staphylococcus aureus 516 cell growth", "from_the_text": "as §1", "units": {"inhibition at 13 µg/mL": "%"}, "values": [
      {"smiles": "N#Cc1ccc2ccc(=O)n(CCN3CCC(NCc4cc5c(cn4)OCCO5)C(F)C3)c2c1", "note": "(single isomer, unassigned) [Example 33, 1-(2-{4-[(2,3-Dihydro[1,4]dioxino[2,3-c]pyridin-7-ylmethyl)amino]-3-fluoropiperidin-1-yl}ethyl)-2-oxo-1,2-dihydroquinoline-7-carbonitrile]", "inhibition at 13 µg/mL": 96}
    ]},
    {"system": "Staphylococcus aureus (Sau) 516 cells", "test": "Bacterial Susceptibility Testing Methods 2 (microbroth dilution, growth inhibition)", "assay_type": "cell-based", "details": "Staphylococcus aureus, Tested Concentration 14 μg/mL; Staphylococcus aureus 516 cell growth", "from_the_text": "as §1", "units": {"inhibition at 14 µg/mL": "%"}, "values": [
      {"smiles": "COc1ccc2ncc(=O)n(CCN3CCC(NCc4cc5c(cn4)OCCO5)C(F)C3)c2c1", "note": "(single isomer, unassigned) [Example 35, 1-(2-{4-[(2,3-Dihydro[1,4]dioxino[2,3-c]pyridin-7-ylmethyl)amino]-3-fluoropiperidin-1-yl}ethyl)-7-methoxyquinoxalin-2(1H)-one]", "inhibition at 14 µg/mL": 100}
    ]},
    {"system": "Staphylococcus aureus (Sau) 516 cells", "test": "Bacterial Susceptibility Testing Methods 2 (microbroth dilution, growth inhibition)", "assay_type": "cell-based", "details": "Tested Concentration 8 μg/mL; Staphylococcus aureus 516 cell growth suppressed compared to untreated sample", "from_the_text": "as §1", "units": {"Inhibition (%)": "%"}, "values": [
      {"smiles": "COc1ccc2ncc(=O)n(CCN3CCC(NCc4cc5c(cn4)OCCO5)C(O)C3)c2c1", "note": "(single isomer, unassigned) [Example 31, 1-(2-{4-[(2,3-dihydro[1,4]dioxino[2,3-c]pyridin-7-ylmethyl)amino]-3-hydroxypiperidin-1-yl}ethyl)-7-methoxyquinoxalin-2(1H)-one]", "Inhibition (%)": 87},
      {"smiles": "COc1ccc2ncc(=O)n(CCN3CCC(NCc4ccc5c(n4)NC(=O)CO5)C(O)C3)c2c1", "note": "(single isomer, unassigned) [Example 32, 6-[({3-Hydroxy-1-[2-(7-methoxy-2-oxoquinoxalin-1(2H)-yl)ethyl]piperidin-4-yl}amino)methyl]-2H-pyrido[3,2-b][1,4]oxazin-3 (4H)-one]", "Inhibition (%)": 98},
      {"smiles": "N#Cc1ccc2ccc(=O)n(CCN3CC[C@H](NCc4cc5c(cn4)OCCO5)[C@H](O)C3)c2c1", "note": "[Example 1]", "Inhibition (%)": 100},
      {"smiles": "COc1ccc2ncc(=O)n(CCN3CC[C@H](NCc4ccc5c(n4)NC(=O)CS5)[C@H](O)C3)c2c1", "note": "[Example 9]", "Inhibition (%)": 100}
    ]},
    {"system": "Staphylococcus aureus (Sau) 516 cells", "test": "Bacterial Susceptibility Testing Methods 2 (microbroth dilution, growth inhibition)", "assay_type": "cell-based", "details": "Tested Concentration 12 μg/mL; Staphylococcus aureus 516 cell growth", "from_the_text": "as §1", "units": {"Inhibition (%)": "%"}, "values": [
      {"smiles": "COc1ccc2ncc(=O)n(CCN3CCC(NCc4ccc5c(n4)NC(=O)CO5)C(F)C3)c2c1", "note": "(single isomer, unassigned) [Example 40, 6-[({3-Fluoro-1-[2-(7-methoxy-2-oxoquinoxalin-1(2H)-yl)ethyl]piperidin-4-yl}amino)methyl]-2H-pyrido[3,2-b][1,4]oxazin-3 (4H)-one]", "Inhibition (%)": 100}
    ]},
    {"system": "Staphylococcus aureus (Sau) 516 cells", "test": "Bacterial Susceptibility Testing Methods 2 (microbroth dilution, growth inhibition)", "assay_type": "cell-based", "details": "Tested Concentration 13 μg/mL; Staphylococcus aureus 516 cell growth", "from_the_text": "as §1", "units": {"Inhibition (%)": "%"}, "values": [
      {"smiles": "N#Cc1ccc2ccc(=O)n(CCN3CCC(NCc4cc5c(cn4)OCCO5)C(F)C3)c2c1", "note": "(single isomer, unassigned) [Example 37, 1-(2-{4-[(2,3-Dihydro[1,4]dioxino[2,3-c]pyridin-7-ylmethyl)amino]-3-fluoropiperidin-1-yl}ethyl)-2-oxo-1,2-dihydroquinoline-7-carbonitrile]", "Inhibition (%)": 100}
    ]},
    {"system": "Staphylococcus aureus (Sau) 516 cells", "test": "Bacterial Susceptibility Testing Methods 2 (microbroth dilution, growth inhibition)", "assay_type": "cell-based", "details": "Tested Concentration 14 μg/mL; Staphylococcus aureus 516 cell growth", "from_the_text": "as §1", "units": {"Inhibition (%)": "%"}, "values": [
      {"smiles": "COc1ccc2ncc(=O)n(CCN3CCC(NCc4cc5c(cn4)OCCO5)C(F)C3)c2c1", "note": "(single isomer, unassigned) [Example 39, 1-(2-{4-[(2,3-Dihydro[1,4]dioxino[2,3-c]pyridin-7-ylmethyl)amino]-3-fluoropiperidin-1-yl}ethyl)-7-methoxyquinoxalin-2(1H)-one]", "Inhibition (%)": 100}
    ]}
  ]
}
